# Source: US20250041278A1, “TLR8 AGONIST FOR MODULATING IMMUNE RESPONSE” (The Children's Medical Center Corporation, priority 2021, published 2025)
# Key:
# Format in all cases: cell-based
# hTLR2 = biological target: T1, hTLR2 (Homo sapiens, UniProt O60603); experiment: HEK hTLR2 NF-κB SEAP reporter assay; details: even at higher concentrations
# T1 construct: expressed in transfected cells; host or cells: HEK reporter cells
# Method: (§1) FIGS. 3A-3E. PVP-179 is a TLR8 agonist. FIG. 3A: PVP-179 was sent to InvivoGen for PRR ligand screening service. Various cells lines were utilized to screen for PVP-179-induced ([…]) activation of TLRs, NOD1/2, RIG-I/MDA-5, Dectin-1 or Mincle receptor. The heat-map depicts percentage activity compared to the positive control for each receptor. FIG. 3B: PVP-179 induced activity (% activity compared to the positive control: CL075 at 1 μg/mL) in HEK-293 cells specifically expressing hTLR8. In brief, these cells have an NF-κB/AP-1-inducible secreted embryonic alkaline phosphatase (SEAP) reporter gene which allows monitoring of signaling via TLR8. After incubation for 16-24 hours, supernatant harvested from the cells is mixed with media containing SEAP-substrate and the optical density (OD) is measured at 650 nm using a spectrophotometer. FIG. 3C: As in FIG. 3B, HEK cells specifically expressing hTLR2, hTLR7, or hTLR8, in addition to the HEK-Null cell line carrying only the reporter gene, were stimulated with the indicated concentrations of PVP-179. […] PVP-179 activity is expressed as a percentage of NF-κB induced in the cells stimulated with TNF (positive control for each cell line). […] The supernatants were harvested after 20-24 hours and SEAP production (to assess NF-κB activity) was measured using QUANTIBlue assay. […]
# hTLR7 = biological target: T2, hTLR7 (Homo sapiens, UniProt Q9NYK1); experiment: HEK hTLR7 NF-κB SEAP reporter assay; details: even at higher concentrations
# T2 construct: expressed in transfected cells; host or cells: HEK reporter cells
# T2 sequence (Q9NYK1 27-1049): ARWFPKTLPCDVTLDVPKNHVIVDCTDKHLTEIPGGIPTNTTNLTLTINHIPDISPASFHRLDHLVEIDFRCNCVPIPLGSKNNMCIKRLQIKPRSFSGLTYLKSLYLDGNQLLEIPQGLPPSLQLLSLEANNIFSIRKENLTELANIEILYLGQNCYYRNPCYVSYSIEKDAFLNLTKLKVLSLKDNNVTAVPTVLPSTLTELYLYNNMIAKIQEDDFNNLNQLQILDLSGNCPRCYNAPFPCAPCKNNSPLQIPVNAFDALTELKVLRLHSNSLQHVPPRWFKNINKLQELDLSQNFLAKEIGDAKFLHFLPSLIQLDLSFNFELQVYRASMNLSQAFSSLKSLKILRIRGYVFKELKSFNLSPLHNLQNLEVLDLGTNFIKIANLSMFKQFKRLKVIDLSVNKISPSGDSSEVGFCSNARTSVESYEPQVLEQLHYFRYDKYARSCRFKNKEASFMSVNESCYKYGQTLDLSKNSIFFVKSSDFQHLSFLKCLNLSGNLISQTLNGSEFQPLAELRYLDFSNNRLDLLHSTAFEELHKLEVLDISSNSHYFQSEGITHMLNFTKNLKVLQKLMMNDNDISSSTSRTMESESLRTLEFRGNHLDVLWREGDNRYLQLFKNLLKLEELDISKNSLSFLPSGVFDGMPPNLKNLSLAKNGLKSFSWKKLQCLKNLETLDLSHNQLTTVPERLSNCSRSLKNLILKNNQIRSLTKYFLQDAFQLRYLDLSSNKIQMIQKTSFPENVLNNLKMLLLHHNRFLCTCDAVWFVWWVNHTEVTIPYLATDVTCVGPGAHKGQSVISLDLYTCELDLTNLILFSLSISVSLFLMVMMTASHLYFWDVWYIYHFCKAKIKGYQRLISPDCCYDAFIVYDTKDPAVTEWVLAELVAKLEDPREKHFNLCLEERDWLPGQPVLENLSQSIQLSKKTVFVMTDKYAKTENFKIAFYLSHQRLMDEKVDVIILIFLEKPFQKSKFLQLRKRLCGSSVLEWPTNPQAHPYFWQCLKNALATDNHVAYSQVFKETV
# Method: as §1
# hTLR8 = biological target: T3, hTLR8 (Homo sapiens, UniProt Q9NR97); experiment: HEK-293 hTLR8 NF-κB/AP-1 SEAP reporter assay
# T3 construct: host or cells: HEK-293 reporter cells
# T3 sequence (Q9NR97 27-1041): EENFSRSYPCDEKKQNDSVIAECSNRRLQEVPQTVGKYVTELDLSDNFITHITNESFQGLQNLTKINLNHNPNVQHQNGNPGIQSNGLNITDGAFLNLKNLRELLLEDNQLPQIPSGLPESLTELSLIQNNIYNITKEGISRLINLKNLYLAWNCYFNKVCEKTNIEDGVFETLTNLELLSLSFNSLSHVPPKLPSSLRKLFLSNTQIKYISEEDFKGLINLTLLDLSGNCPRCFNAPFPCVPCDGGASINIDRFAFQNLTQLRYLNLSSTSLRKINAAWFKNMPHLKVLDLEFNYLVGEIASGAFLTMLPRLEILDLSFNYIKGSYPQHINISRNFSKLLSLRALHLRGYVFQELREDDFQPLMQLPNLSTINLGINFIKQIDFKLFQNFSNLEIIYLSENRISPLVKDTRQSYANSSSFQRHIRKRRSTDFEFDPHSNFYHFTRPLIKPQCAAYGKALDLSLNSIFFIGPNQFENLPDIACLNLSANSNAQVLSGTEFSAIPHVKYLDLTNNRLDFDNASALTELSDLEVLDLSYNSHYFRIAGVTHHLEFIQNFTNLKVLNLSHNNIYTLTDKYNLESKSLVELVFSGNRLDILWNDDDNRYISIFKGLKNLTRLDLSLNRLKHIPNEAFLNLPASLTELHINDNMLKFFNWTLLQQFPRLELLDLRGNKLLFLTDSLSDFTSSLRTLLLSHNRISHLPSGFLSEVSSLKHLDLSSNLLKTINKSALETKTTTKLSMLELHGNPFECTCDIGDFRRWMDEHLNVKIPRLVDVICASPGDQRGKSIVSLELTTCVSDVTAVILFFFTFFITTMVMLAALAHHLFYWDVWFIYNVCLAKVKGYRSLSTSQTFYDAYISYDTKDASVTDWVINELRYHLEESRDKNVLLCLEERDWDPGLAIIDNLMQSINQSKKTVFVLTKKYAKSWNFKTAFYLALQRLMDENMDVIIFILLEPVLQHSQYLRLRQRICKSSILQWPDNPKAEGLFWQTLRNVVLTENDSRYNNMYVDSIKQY
# Method: as §1
# T1 sequence (O60603 21-784): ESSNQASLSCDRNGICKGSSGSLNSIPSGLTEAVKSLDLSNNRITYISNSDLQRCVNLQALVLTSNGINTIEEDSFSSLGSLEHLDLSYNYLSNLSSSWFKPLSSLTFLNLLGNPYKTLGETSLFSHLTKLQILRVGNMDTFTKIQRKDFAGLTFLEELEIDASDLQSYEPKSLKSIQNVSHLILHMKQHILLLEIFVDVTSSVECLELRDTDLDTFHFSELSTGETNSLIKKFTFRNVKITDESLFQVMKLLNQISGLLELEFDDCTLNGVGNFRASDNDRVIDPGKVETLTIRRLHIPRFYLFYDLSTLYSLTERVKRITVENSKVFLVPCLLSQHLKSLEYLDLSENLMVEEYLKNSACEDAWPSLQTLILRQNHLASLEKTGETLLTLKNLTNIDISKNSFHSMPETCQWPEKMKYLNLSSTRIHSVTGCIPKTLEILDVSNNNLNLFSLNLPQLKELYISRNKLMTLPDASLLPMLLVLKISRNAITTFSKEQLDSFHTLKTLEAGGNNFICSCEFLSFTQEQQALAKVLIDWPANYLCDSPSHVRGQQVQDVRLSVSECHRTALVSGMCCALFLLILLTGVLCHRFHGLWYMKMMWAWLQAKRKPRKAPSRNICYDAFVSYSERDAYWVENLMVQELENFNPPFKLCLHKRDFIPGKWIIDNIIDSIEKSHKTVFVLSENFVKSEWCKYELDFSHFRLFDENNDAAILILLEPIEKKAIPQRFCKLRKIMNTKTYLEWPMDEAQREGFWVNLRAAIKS
structure (smiles),measurement,setting,value
CCCCn1c(/N=C/c2nc3ccccc3n2C)nc2ccccc21 [PVP-179],NF-κB activity in HEK cells expressing hTLR2,hTLR2,no activity was detected
same,NF-κB activity in HEK cells expressing hTLR7,hTLR7,no activity was detected
same,NF-κB activity in HEK cells expressing hTLR8,hTLR8; 20-24 hours,concentration-dependent activity
same,activity in HEK-hTLR8 cells after TLR8 inhibitor CUCPT-9a,"hTLR8; CUCPT-9a 1 μM, PVP-179 at 33 μM or above",significantly blocked
